# Patent EP0091090A2, “Bipyridine substituted imidazolidene copper complex and its use in food-producing animals, and bipyridine, 2,2'-(2-imidazolidinylidene) di-copper complex and use in animals” (INTERNATIONAL MINERALS & CHEMICAL CORPORATION, priority 1982, dated 1983)
# System: rumen fluid batch culture
# Experiment: Rumen fluid batch culture test: volatile fatty acid, gas (CH4 + H2), protein and amino acid accumulation (Example 2)
# Format: cell-based, steers
# Set-up: HFo (formate) / HAc (acetate) / HPr (propionate) / HiBu (isobutyrate) / HBu (butyrate) / HiVal (isovalerate) / Total / Caloric Value of H2 / Caloric Value of HFo / Caloric Value of HAc / Caloric Value of HPr / Caloric Value of HiBu / Caloric Value of HBu / Caloric Value of HiVal / Caloric Value of CH3: unit not given here
# Protocol: The above Formula IV composition was tested to determine its effectiveness as a feed additive for ruminants. The initial tests were in rumen fluid batch culture systems to determine the effect of the compound on volatile fatty acid/methane ratios (VFA/CH4). […] Test Procedure: A 50/50 mixture of ground corn and ground alfalfa was used as the substrate for the subject rumen fluid batch culture test. The compound (Formula IV ) was present in the rumen fluid in three separate test samples at 8.33, 25 and 75 ppm, respectively. On day 1, rumen fluid was obtained from mature fistulated steers on 50/50 concentrate/roughage diets. The rumen fluid (RF) was strained through three layers of gauze cloth and equilibrated with C02 gas. Wheaton serum vials (125 ml) were prepared ahead with 20 ml continuous batch buffer and 100 mg 50/50 ground corn/ground alfalfa. Controls and compounds (dissolved in acetone) were set up according to desired levels. The vials were kept under C02 gas until 20 ml of the strained RF was added. The vials were sealed and incubated at 39°C for 24 hours in a hot water bath. On successive days, gas samples (0.1 ml) were drawn for gas chromatography analysis before transferring 20 ml of the batch culture to another vial containing 20 ml of buffer, 100 mg substrate, and the corresponding compound. The remaining 20 ml was inoculated with 2 ml 6N HC1 and centrifuged at 15,000 rpm for 15 minutes. Ether extracts were prepared for volatile fatty acid (VFA) analysis. Some minor adjustments were made in the termperatures on the Hewlett-Packard 5750 Gas-Liquid Chromatograph used for VFA analysis when the glass column used was changed from 1/4 inch diameter to 1/8 inch diameter. Injection Port = 220°C Column Oven = 170°C Flame Detector = 250°C Only 4 minutes was needed to record the sample instead of the previous 7 minutes.
# [1] = 75 μg/ml, total produced on Day 10
# [2] = all levels tested (8.33, 25 and 75 ppm), versus control
substance,measurement,setting,value
"2,2'-(4,5-diphenyl-2H-imidazol-2-ylidene)bispyridine with CuCl2(1/1) [Formula IV Compound]",HPr (propionate),"75 µg/ml, day 5",17.24
same,HiBu (isobutyrate),"75 µg/ml, day 5",0.51
same,HiVal (isovalerate),"75 µg/ml, day 5",0.26
same,Total,"75 µg/ml, day 5",47.03
same,AA,"75 µg/ml, day 6",0.20 µ Moles/ml
same,CH4,"75 µg/ml, day 6",67 µ Moles
same,H2,"75 µg/ml, day 6",0 µ Moles
same,HAc (acetate),"75 µg/ml, day 6",25.01
same,HBu (butyrate),"75 µg/ml, day 6",1.78
same,HFo (formate),"75 µg/ml, day 6",0.51
same,HPr (propionate),"75 µg/ml, day 6",16.43
same,HiBu (isobutyrate),"75 µg/ml, day 6",0.39
same,HiVal (isovalerate),"75 µg/ml, day 6",0.58
same,Protein,"75 µg/ml, day 6",0.02 mg/mL
same,Total,"75 µg/ml, day 6",44.68
same,AA,"75 µg/ml, day 7",0.26 µ Moles/ml
same,CH4,"75 µg/ml, day 7",3 µ Moles
same,H2,"75 µg/ml, day 7",0 µ Moles
same,HAc (acetate),"75 µg/ml, day 7",19.59
same,HBu (butyrate),"75 µg/ml, day 7",9.9
same,HFo (formate),"75 µg/ml, day 7",3.17
same,HPr (propionate),"75 µg/ml, day 7",14.41
same,HiBu (isobutyrate),"75 µg/ml, day 7",0.83
same,HiVal (isovalerate),"75 µg/ml, day 7",0.10
same,Protein,"75 µg/ml, day 7",0.01 mg/mL
same,Total,"75 µg/ml, day 7",48.01
same,AA,"75 µg/ml, day 8",0.31 µ Moles/ml
same,CH4,"75 µg/ml, day 8",3 µ Moles
same,H2,"75 µg/ml, day 8",0 µ Moles
same,HAc (acetate),"75 µg/ml, day 8",17.86
same,HBu (butyrate),"75 µg/ml, day 8",11.25
same,HFo (formate),"75 µg/ml, day 8",3.52
same,HPr (propionate),"75 µg/ml, day 8",14.08
same,HiBu (isobutyrate),"75 µg/ml, day 8",2.61
same,HiVal (isovalerate),"75 µg/ml, day 8",0
same,Protein,"75 µg/ml, day 8",0 mg/mL
same,Total,"75 µg/ml, day 8",49.31
same,AA,"75 µg/ml, day 9",0.34 µ Moles/ml
same,CH4,"75 µg/ml, day 9",0 µ Moles
same,H2,"75 µg/ml, day 9",11 µ Moles
same,HAc (acetate),"75 µg/ml, day 9",18.93
same,HBu (butyrate),"75 µg/ml, day 9",9.21
same,HFo (formate),"75 µg/ml, day 9",2.61
same,HPr (propionate),"75 µg/ml, day 9",13.41
same,HiBu (isobutyrate),"75 µg/ml, day 9",3.16
same,HiVal (isovalerate),"75 µg/ml, day 9",0.26
same,Protein,"75 µg/ml, day 9",0 mg/mL
same,Total,"75 µg/ml, day 9",50.56
same,AA,"75 µg/ml, day 10",0.47 µ Moles/ml
same,CH4,"75 µg/ml, day 10",0 µ Moles
same,H2,"75 µg/ml, day 10",14 µ Moles
same,HAc (acetate),"75 µg/ml, day 10",18.71
same,HBu (butyrate),"75 µg/ml, day 10",8.16
same,HFo (formate),"75 µg/ml, day 10",2.52
same,HPr (propionate),"75 µg/ml, day 10",14.57
same,HiBu (isobutyrate),"75 µg/ml, day 10",3.74
same,HiVal (isovalerate),"75 µg/ml, day 10",0.27
same,Protein,"75 µg/ml, day 10",0 mg/mL
same,Total,"75 µg/ml, day 10",47.97
same,Caloric Value of CH3,"75 µg/ml, produced on Day 10",0
same,Caloric Value of H2,"75 µg/ml, produced on Day 10",0.96
same,Caloric Value of HAc,"75 µg/ml, produced on Day 10",77.39
same,Caloric Value of HBu,"75 µg/ml, produced on Day 10",74.05
same,Caloric Value of HFo,"75 µg/ml, produced on Day 10",3.06
same,Caloric Value of HPr,"75 µg/ml, produced on Day 10",114.76
same,Caloric Value of HiBu,"75 µg/ml, produced on Day 10",31.54
same,Caloric Value of HiVal,"75 µg/ml, produced on Day 10",3.80
same,"Caloric Value, Total (VFA's)","75 µg/ml, produced on Day 10",304.60
same,Total Cal in VFA & Gas,"75 µg/ml, produced on Day 10",305.56 cal
same,CH4 produced on Day 10,[1],0
same,H2 produced on Day 10,[1],14
same,HAc (acetate) produced on Day 10,[1],369.6
same,HBu (butyrate) produced on Day 10,[1],142.4
same,HFo (formate) produced on Day 10,[1],48.8
same,HPr (propionate) produced on Day 10,[1],314.4
same,HiBu (isobutyrate) produced on Day 10,[1],86.4
same,HiVal (isovalerate) produced on Day 10,[1],5.6
same,Total VFA's produced on Day 10,[1],994.2
same,Total energy in the end products,8.33 and 25 µg/ml,less than the control
same,butyrate produced,"8.33 and 75 µg/ml (not 25 µg/ml), versus control",more butyrate was produced
same,methane,8.33 ppm,decreased slightly
same,hydrogen production,"25 and 75 ppm, first 6 days",no hydrogen production
same,methane,"25 and 75 ppm, first 6 days",slight decreases
same,hydrogen produced,"25 and 75 ppm, seventh day",some hydrogen produced
same,methane,"25 and 75 ppm, seventh day",dropped drastically
same,increasing the number of calories available from the animals' feed,"75 ppm dosage level, Table 3",most effective amount
same,shift in volatile fatty acids produced,"all dosage levels, Table 2",desired shift in volatile fatty acids produced away from acetate towards propionate
same,Acetate,[2],decreased
same,propionate,[2],increased
same,activity in rumen fluid batch culture tests,tests of Examples 2 and 3,activity comparable to monensin
